Experimental data as given in patent US6579902B1, “Ribose-substituted aromatic amides, method for the production and use thereof as medicaments” (Aventis Pharma S.A., priority 1999, dated 2003).
Converted amounts (≈) assume the structure as drawn.

Assays:
Assay type in all cases: cell-based
bacterial strain = test: Activity in vitro, method of dilutions in a liquid medium (overall statement); conditions: summary of the MIC test on the listed strains
Method: (§1) A—Method of Dilutions in a Liquid Medium
(§2) A series of tubes was prepared in which the same quantity of sterile nutritive medium is distributed. Increasing quantities of the product to be studied are distributed in each tube, then each tube is seeded with a bacterial strain. After incubation for 24 hours in an oven at 37° C., the growth inhibition is evaluated by transillumination which allows the minimum inhibitory concentrations (M.I.C) to be determined, expressed in micrograms/cm^3.

[1] = tested on: Strepto pneumoniae 030BI2; test: MIC, method of dilutions in a liquid medium; conditions: incubation 24 hours at 37° C.
Method: as §1, §2

Staph. aureus 011HT18 = test: MIC, method of dilutions in a liquid medium; conditions: incubation 24 hours at 37° C.
Method: as §1, §2

Entero faecalis 02D2UC5 = test: MIC, method of dilutions in a liquid medium; conditions: incubation 24 hours at 37° C.
Method: as §1, §2

[2] = tested on: Staph. epidermidis 0126042; test: MIC, method of dilutions in a liquid medium; conditions: incubation 24 hours at 37° C.
Method: as §1, §2

Entero faecium 02D3IP2 = test: MIC, method of dilutions in a liquid medium; conditions: incubation 24 hours at 37° C.
Method: as §1, §2

Strepto. pyogene 02A1UC1 = test: MIC, method of dilutions in a liquid medium; conditions: incubation 24 hours at 37° C.
Method: as §1, §2

[3] = tested on: Staph. Coag. Negative 012HT5; test: MIC, method of dilutions in a liquid medium; conditions: incubation 24 hours at 37° C.
Method: as §1, §2

Structure (SMILES) | activity in vitro (in words) (bacterial strain) | MIC [1] | MIC (Staph. aureus 011HT18) | MIC (Entero faecalis 02D2UC5) [µg/mL] | MIC [2] | MIC (Entero faecium 02D3IP2) [µg/mL] | MIC (Strepto. pyogene 02A1UC1) [µg/mL] | MIC [3] [µg/mL]
C#CCONC(=O)OC1CC(c2ccc3c(O)c(NC(=O)C(C)C)c(=O)oc3c2C)OC2(CCCC2)C1OC (stereo not drawn) [EX. 11, [7R-(7.α.,8β.,9β.,10.α)]-(2-Propynyloxy)-carbamate of 7-[4-Hydroxy-8-methyl-3-[(2-methyl-1-oxo-propyl)amino]-2-oxo-2H-1-benzopyran-7-yl]-10-methoxy-6-oxaspiro[4,5]decan-9-yl] | excellent activity | ≦0.04 μg/ml | ≦0.04 μg/ml | 0.63 (≈ 1.16 µM) | ≦0.04 μg/ml | 0.32 (≈ 0.59 µM) | 0.08 (≈ 0.147 µM) | 0.15 (≈ 0.276 µM)
C#CCONC(=O)OC1C(O)C(c2ccc3c(O)c(NC(=O)c4ccccc4)c(=O)oc3c2C)OC2(CCCC2)C1OC (stereo not drawn) [EX. 10, [7R-(7.α.,8.β,9.β,10.α)]-(2-Propynyloxy)-carbamate of 8-Hydroxy-7-[4-hydroxy-8-methyl-2-oxo-3-(benzoylamino)-2H-1-benzopyran-7-yl)-10-methoxy-6-oxaspiro[4,5]decan-9-yl] | excellent activity | ≦0.04 μg/ml | ≦0.04 μg/ml | 1.2 (≈ 2.02 µM) | ≦0.04 μg/ml | 0.63 (≈ 1.06 µM) | 0.16 (≈ 0.27 µM) | 0.08 (≈ 0.135 µM)
